Experimental data as given in article PMC9516332 (Frontiers in Oncology, 2022).

Key:
Assay in all cases: Kinase panel profiling at 1 µmol/L (MSA or IMAP), percentage inhibition
Format in all cases: biochemical
[1] = target: T1, panel of 255 wild-type kinases (Homo sapiens, UniProt O43781); settings: kinase DYRK3; 1 µmol/L single concentration; read-out: %-inhibition at 1 µmol/L, DYRK3
T1 sequence (O43781 1-588): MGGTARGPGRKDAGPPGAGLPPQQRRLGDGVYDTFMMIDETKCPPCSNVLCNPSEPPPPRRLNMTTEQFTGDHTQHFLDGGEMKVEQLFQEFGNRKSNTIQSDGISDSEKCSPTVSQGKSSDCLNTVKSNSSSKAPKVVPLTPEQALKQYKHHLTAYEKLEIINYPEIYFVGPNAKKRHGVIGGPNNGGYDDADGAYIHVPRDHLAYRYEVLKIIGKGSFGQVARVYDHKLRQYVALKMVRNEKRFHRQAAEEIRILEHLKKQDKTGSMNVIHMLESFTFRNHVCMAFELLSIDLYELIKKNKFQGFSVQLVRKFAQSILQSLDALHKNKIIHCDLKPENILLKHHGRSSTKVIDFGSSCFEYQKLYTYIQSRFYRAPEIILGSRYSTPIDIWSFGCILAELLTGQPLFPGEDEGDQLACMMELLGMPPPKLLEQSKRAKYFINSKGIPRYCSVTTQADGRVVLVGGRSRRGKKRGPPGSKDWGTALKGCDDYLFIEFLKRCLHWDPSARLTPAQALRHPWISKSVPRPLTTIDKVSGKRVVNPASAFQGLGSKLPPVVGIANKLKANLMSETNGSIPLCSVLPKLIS

[2] = target: panel of 255 wild-type kinases (Homo sapiens, UniProt O60674); settings: kinase JAK2; 1 µmol/L single concentration; read-out: %-inhibition at 1 µmol/L, JAK2
[3] = target: panel of 255 wild-type kinases (Homo sapiens, UniProt P08069); settings: kinase IGF1R; 1 µmol/L single concentration; read-out: %-inhibition at 1 µmol/L, IGF1R
[4] = target: panel of 255 wild-type kinases (Homo sapiens, UniProt P11362); settings: kinase FGFR1; 1 µmol/L single concentration; read-out: %-inhibition at 1 µmol/L, FGFR1
[5] = target: T2, panel of 255 wild-type kinases (Homo sapiens, UniProt P30530); settings: AXL kinase assay; 1 µmol/L single concentration; read-out: %-inhibition AXL
T2 sequence (P30530 26-894): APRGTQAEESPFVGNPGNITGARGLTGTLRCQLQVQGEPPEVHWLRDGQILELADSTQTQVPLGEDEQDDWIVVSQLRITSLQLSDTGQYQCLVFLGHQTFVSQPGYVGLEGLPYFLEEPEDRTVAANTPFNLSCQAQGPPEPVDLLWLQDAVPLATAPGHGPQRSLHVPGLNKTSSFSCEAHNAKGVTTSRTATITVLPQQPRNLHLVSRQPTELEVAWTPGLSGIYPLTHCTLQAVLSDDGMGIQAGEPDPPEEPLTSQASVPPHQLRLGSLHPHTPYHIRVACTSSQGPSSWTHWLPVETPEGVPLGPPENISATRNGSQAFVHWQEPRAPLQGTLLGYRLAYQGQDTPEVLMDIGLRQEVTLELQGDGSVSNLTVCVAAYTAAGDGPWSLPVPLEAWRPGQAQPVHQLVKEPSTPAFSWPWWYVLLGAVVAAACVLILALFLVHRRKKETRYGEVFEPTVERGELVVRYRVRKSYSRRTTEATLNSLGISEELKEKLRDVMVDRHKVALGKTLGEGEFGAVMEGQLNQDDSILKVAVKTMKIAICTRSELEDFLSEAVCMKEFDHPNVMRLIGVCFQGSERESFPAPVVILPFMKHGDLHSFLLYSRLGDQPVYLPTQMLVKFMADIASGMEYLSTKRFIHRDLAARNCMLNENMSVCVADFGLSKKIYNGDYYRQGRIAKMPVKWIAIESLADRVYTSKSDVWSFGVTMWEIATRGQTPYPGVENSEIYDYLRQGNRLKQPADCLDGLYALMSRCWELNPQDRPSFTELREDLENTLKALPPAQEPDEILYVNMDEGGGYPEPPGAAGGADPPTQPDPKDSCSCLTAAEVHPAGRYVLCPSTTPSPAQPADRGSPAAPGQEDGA

[6] = target: T3, panel of 255 wild-type kinases (Homo sapiens, UniProt P43403); settings: kinase ZAP70; 1 µmol/L single concentration; read-out: %-inhibition at 1 µmol/L, ZAP70
T3 sequence (P43403 1-619): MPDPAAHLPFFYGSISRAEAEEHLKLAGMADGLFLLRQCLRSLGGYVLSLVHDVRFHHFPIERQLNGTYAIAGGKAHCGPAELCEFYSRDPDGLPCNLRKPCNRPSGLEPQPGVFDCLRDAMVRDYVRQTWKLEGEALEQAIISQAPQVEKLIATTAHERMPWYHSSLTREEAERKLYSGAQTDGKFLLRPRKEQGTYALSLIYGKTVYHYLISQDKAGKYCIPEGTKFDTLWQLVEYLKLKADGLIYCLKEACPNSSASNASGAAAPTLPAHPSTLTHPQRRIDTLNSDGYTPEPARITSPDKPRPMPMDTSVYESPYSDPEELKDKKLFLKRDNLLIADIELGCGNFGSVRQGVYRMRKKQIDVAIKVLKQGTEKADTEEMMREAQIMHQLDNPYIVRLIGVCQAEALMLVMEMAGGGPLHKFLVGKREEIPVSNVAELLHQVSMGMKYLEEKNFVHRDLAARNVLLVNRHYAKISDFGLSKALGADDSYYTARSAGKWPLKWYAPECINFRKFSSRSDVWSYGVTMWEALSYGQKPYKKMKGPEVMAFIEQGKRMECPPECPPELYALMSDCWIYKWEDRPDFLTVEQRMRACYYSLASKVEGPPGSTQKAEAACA

[7] = target: panel of 255 wild-type kinases (Homo sapiens, UniProt P45984); settings: kinase JNK2; 1 µmol/L single concentration; read-out: %-inhibition at 1 µmol/L, JNK2

Structure (SMILES) | inhibition at 1 µM [1] [%] | inhibition at 1 µM [2] [%] | inhibition at 1 µM [3] [%] | inhibition at 1 µM [4] [%] | inhibition at 1 µM [5] [%] | inhibition at 1 µM [6] [%] | inhibition at 1 µM [7] [%]
CO[C@]1(C(=O)N[C@@H](C)c2ccc(-n3cc(F)cn3)nc2)CC[C@H](c2nc(C)cc(Nc3cc(C)[nH]n3)n2)CC1 [pralsetinib] | -4.32 | 98 | 10 | 96 | 92 | 9 | 5
COc1cc2ncnc(Nc3ccc(F)c(Cl)c3)c2cc1NC(=O)/C=C/CN1CCCCC1 [dacomitinib] | 18 | 0.856 | 3.29 | 8 | 40 | -4 | 1.27
CCn1c(=O)c(-c2cc(NC(=O)Nc3ccccc3)c(F)cc2Br)cc2cnc(NC)cc21 [ripretinib] | -3.77 | 63 | 3.34 | 92 | 4 | -8 | 35
Cc1nc(NC(=O)N2CCC[C@H]2C(N)=O)sc1-c1ccnc(C(C)(C)C(F)(F)F)c1 [alpelisib] | 10 | 1.85 | -0.261 | 4.29 | -3.59 | 1.11 | 0.494
C=CC(=O)N1CCC([C@@H]2CCNc3c(C(N)=O)c(-c4ccc(Oc5ccccc5)cc4)nn32)CC1 [zanubrutinib] | -6 | -0.375 | 3 | 4.53 | 4.56 | 2 | -1.18
O=C(Nc1cnn2ccc(N3CCC[C@@H]3c3cc(F)ccc3F)nc12)N1CC[C@H](O)C1 [larotrectinib] | -6 | 46 | 3.6 | -2 | 4.22 | 4.69 | -0.671
Cc1cc(Nc2ncnc3ccc(NC4=NC(C)(C)CO4)cc23)ccc1Oc1ccn2ncnc2c1 [tucatinib] | 1.07 | 4.51 | 2.31 | -3.24 | 22 | 3.36 | 1.47
FC(F)(F)c1ccc(CNc2ccc(Cc3c[nH]c4ncc(Cl)cc34)cn2)cn1 [pexidartinib] | 8 | 35 | 17 | 45 | 39 | -7 | 2.5
Cn1cnc2c(F)c(Nc3ccc(Br)cc3F)c(C(=O)NOCCO)cc21 [binimetinib] | -3.3 | -0.409 | 4.47 | 2 | -1.7 | -1.09 | -5.47
CN1CCN(c2ccc(C(=O)Nc3n[nH]c4ccc(Cc5cc(F)cc(F)c5)cc34)c(NC3CCOCC3)c2)CC1 [entrectinib] | -3 | 100 | 98 | 90 | 96 | 2.19 | 7
COC(=O)N[C@@H](C)CNc1nccc(-c2cn(C(C)C)nc2-c2cc(Cl)cc(NS(C)(=O)=O)c2F)n1 [encorafenib] | -1.06 | 2.62 | 6.61 | 4.27 | 0.276 | 0.195 | 61
C[C@H]1Oc2cc(cnc2N)-c2c(nn(C)c2C#N)CN(C)C(=O)c2ccc(F)cc21 [lorlatinib] | -3.41 | 69 | 79 | 3.43 | 8 | 6 | 3.24
CCN1CCN(c2ccc(Nc3cc(N(C)C(=O)Nc4c(Cl)c(OC)cc(OC)c4Cl)ncn3)cc2)CC1 [infigratinib] | -10 | 2.11 | 18 | 100 | 30 | -2.77 | 2.8
COc1ccc(CN2C3CC2CN(c2ccc(-c4cc(OCC(C)(C)O)cn5ncc(C#N)c45)cn2)C3)cn1 [selpercatinib] | 19 | 27 | 3 | 97 | 93 | 8 | -1.07
Cn1cnc2c(F)c(Nc3ccc(Br)cc3Cl)c(C(=O)NOCCO)cc21 [selumetinib] | -4.7 | -0.0152 | 5.57 | -1.41 | 26 | -1.11 | -2.13
CCc1nc(C(N)=O)c(Nc2ccc(N3CCC(N4CCN(C)CC4)CC3)c(OC)c2)nc1NC1CCOCC1 [gilteritinib] | 27 | 95 | 99 | 55 | 100 | 46 | 44
CCN1C(=O)N(c2c(F)c(OC)cc(OC)c2F)Cc2cnc3[nH]c(CN4CCOCC4)cc3c21 [pemigatinib] | -2.68 | -2.85 | 7 |  | 4.45 | 2 | 1.27
Cn1cc(-c2cc3c(N4CCN(c5ncc([C@@](C)(N)c6ccc(F)cc6)cn5)CC4)ncnn3c2)cn1 [avapritinib] | 49 | 52 | 3.41 | 41 | 37 | 13 | 1.1
